According to PubChem BioAssay AID1963980 (Molecular Pharmacology Branch, DTP, NCI, 2024):

System: 475296-252-R-J1-PDC spheroid viability
Assay: Anticancer human tumor 475296-252-R-J1-PDC patient-derived rectal carcinoma cell line growth inhibition [PI3K]
Conditions: spheroids with HUVEC and MSC; for IC50: curve of first compound; for viability, T/C: stronger effect = lower value
Method in brief: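 Tumor cells were combined with HUVEC and MSCs into spheroids, then dosed with PI3K-inhibitor combinations over half-log ranges capped near clinical Cmax or 10 microM.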

[1] = second compound 0.0316 µM, first compound 0.000316 µM
[2] = second compound 0.0316 µM, first compound 0.001 µM
[3] = second compound 0.0316 µM, first compound 0.00316 µM
[4] = second compound 0.0316 µM, first compound 0.01 µM
[5] = second compound 0.0316 µM, first compound 0.0316 µM
[6] = second compound 0.0316 µM, first compound 0.1 µM
[7] = second compound 0.1 µM, first compound 0.000316 µM
[8] = second compound 0.1 µM, first compound 0.001 µM
[9] = second compound 0.1 µM, first compound 0.00316 µM
[10] = second compound 0.1 µM, first compound 0.01 µM
[11] = second compound 0.1 µM, first compound 0.0316 µM
[12] = second compound 0.1 µM, first compound 0.1 µM
[13] = second compound 0.316 µM, first compound 0.000316 µM
[14] = second compound 0.316 µM, first compound 0.001 µM
[15] = second compound 0.316 µM, first compound 0.00316 µM
[16] = second compound 0.316 µM, first compound 0.01 µM
[17] = second compound 0.316 µM, first compound 0.0316 µM
[18] = second compound 0.316 µM, first compound 0.1 µM
[19] = second compound 1 µM, first compound 0.000316 µM
[20] = second compound 1 µM, first compound 0.001 µM
[21] = second compound 1 µM, first compound 0.00316 µM
[22] = second compound 1 µM, first compound 0.01 µM
[23] = second compound 1 µM, first compound 0.0316 µM
[24] = second compound 1 µM, first compound 0.1 µM
[25] = second compound 3.16 µM, first compound 0.000316 µM
[26] = second compound 3.16 µM, first compound 0.001 µM
[27] = second compound 3.16 µM, first compound 0.00316 µM
[28] = second compound 3.16 µM, first compound 0.01 µM
[29] = second compound 3.16 µM, first compound 0.0316 µM
[30] = second compound 3.16 µM, first compound 0.1 µM
[31] = second compound 10 µM, first compound 0.000316 µM
[32] = second compound 10 µM, first compound 0.001 µM
[33] = second compound 10 µM, first compound 0.00316 µM
[34] = second compound 10 µM, first compound 0.01 µM
[35] = second compound 10 µM, first compound 0.0316 µM
[36] = second compound 10 µM, first compound 0.1 µM
[37] = second compound 0.0316 µM, first compound 0.316 µM
[38] = second compound 0.0316 µM, first compound 1 µM
[39] = second compound 0.0316 µM, first compound 3.16 µM
[40] = second compound 0.0316 µM, first compound 10 µM
[41] = second compound 0.1 µM, first compound 0.316 µM
[42] = second compound 0.1 µM, first compound 1 µM
[43] = second compound 0.1 µM, first compound 3.16 µM
[44] = second compound 0.1 µM, first compound 10 µM
[45] = second compound 0.316 µM, first compound 0.316 µM
[46] = second compound 0.316 µM, first compound 1 µM
[47] = second compound 0.316 µM, first compound 3.16 µM
[48] = second compound 0.316 µM, first compound 10 µM
[49] = second compound 1 µM, first compound 0.316 µM
[50] = second compound 1 µM, first compound 1 µM
[51] = second compound 1 µM, first compound 3.16 µM
[52] = second compound 1 µM, first compound 10 µM
[53] = second compound 3.16 µM, first compound 0.316 µM
[54] = second compound 3.16 µM, first compound 1 µM
[55] = second compound 3.16 µM, first compound 3.16 µM
[56] = second compound 3.16 µM, first compound 10 µM
[57] = second compound 10 µM, first compound 0.316 µM
[58] = second compound 10 µM, first compound 1 µM
[59] = second compound 10 µM, first compound 3.16 µM
[60] = second compound 10 µM, first compound 10 µM
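Further: spheroids exposed to agents for seven days before readout.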

For `CC(=O)c1c(C)c2cnc(Nc3ccc(N4CCNCC4)cn3)nc2n(C2CCCC2)c1=O` + CC(Nc1ncnc2nc[nH]c12)c1cc2cccc(Cl)c2c(=O)n1-c1ccccc1, the IC50 (second compound 0.0316 µM) was over 0.1 µM, the IC50 (second compound 0.1 µM) was over 0.1 µM and the IC50 (second compound 0.316 µM) was over 0.1 µM. For the same compound, the IC50 (second compound 1 µM) was over 0.1 µM, the IC50 (second compound 3.16 µM) was over 0.1 µM and the IC50 (second compound 10 µM) was over 0.1 µM. It also gave a viability, T/C [1] of 91.8%, a viability, T/C [2] of 91.4% and a viability, T/C [3] of 87.8%. The viability, T/C [4] was 94.2%, the viability, T/C [5] was 96% and the viability, T/C [6] was 102%. For the same compound, the viability, T/C [7] was 97.4%, the viability, T/C [8] was 106% and the viability, T/C [9] was 94.4%. For the same compound, the viability, T/C [10] was 85.8%, the viability, T/C [11] was 105% and the viability, T/C [12] was 112%. For the same compound, the viability, T/C [13] was 105%, the viability, T/C [14] was 89.7% and the viability, T/C [15] was 104%. The viability, T/C [16] was 97.2%, the viability, T/C [17] was 104% and the viability, T/C [18] was 101%. For the same compound, the viability, T/C [19] was 99.9%, the viability, T/C [20] was 109% and the viability, T/C [21] was 84.1%. For the same compound, the viability, T/C [22] was 95.3%, the viability, T/C [23] was 107% and the viability, T/C [24] was 112%. For the same compound, the viability, T/C [25] was 99.2%, the viability, T/C [26] was 86.5% and the viability, T/C [27] was 100%. The viability, T/C [28] was 97.7%, the viability, T/C [29] was 105% and the viability, T/C [30] was 104%. It also gave a viability, T/C [31] of 91.4%, a viability, T/C [32] of 94.8% and a viability, T/C [33] of 89.9%. For the same compound, the viability, T/C [34] was 97.4%, the viability, T/C [35] was 99.8% and the viability, T/C [36] was 86.6%.

`CC(C)n1nc(-c2ccc3oc(N)nc3c2)c2c(N)ncnc21` + CC(Nc1ncnc2nc[nH]c12)c1cc2cccc(Cl)c2c(=O)n1-c1ccccc1 was tested, and the IC50 (second compound 0.0316 µM) was over 0.1 µM, the IC50 (second compound 0.1 µM) was over 0.1 µM and the IC50 (second compound 0.316 µM) was over 0.1 µM. For the same compound, the IC50 (second compound 1 µM) was over 0.1 µM, the IC50 (second compound 3.16 µM) was over 0.1 µM and the IC50 (second compound 10 µM) was over 0.1 µM. For the same compound, the viability, T/C [1] was 87.4%, the viability, T/C [2] was 101% and the viability, T/C [3] was 96%. It also gave a viability, T/C [4] of 76.7%, a viability, T/C [5] of 66.4% and a viability, T/C [6] of 59.6%. It also gave a viability, T/C [7] of 97.8%, a viability, T/C [8] of 88.2% and a viability, T/C [9] of 78%. It also gave a viability, T/C [10] of 72.9%, a viability, T/C [11] of 77.4% and a viability, T/C [12] of 62.3%. It also gave a viability, T/C [13] of 101%, a viability, T/C [14] of 110% and a viability, T/C [15] of 105%. For the same compound, the viability, T/C [16] was 92.7%, the viability, T/C [17] was 65.9% and the viability, T/C [18] was 56.4%. The viability, T/C [19] was 111%, the viability, T/C [20] was 97.8% and the viability, T/C [21] was 84.9%. For the same compound, the viability, T/C [22] was 88.5%, the viability, T/C [23] was 63% and the viability, T/C [24] was 59.2%. It also gave a viability, T/C [25] of 87.8%, a viability, T/C [26] of 101% and a viability, T/C [27] of 94.6%. The viability, T/C [28] was 75.2%, the viability, T/C [29] was 66.8% and the viability, T/C [30] was 61.2%. For the same compound, the viability, T/C [31] was 91.3%, the viability, T/C [32] was 92% and the viability, T/C [33] was 88.9%. For the same compound, the viability, T/C [34] was 80.3%, the viability, T/C [35] was 68.9% and the viability, T/C [36] was 63.6%.

`CCCS(=O)(=O)Nc1ccc(F)c(C(=O)c2c[nH]c3ncc(-c4ccc(Cl)cc4)cc23)c1F` + CC(Nc1ncnc2nc[nH]c12)c1cc2cccc(Cl)c2c(=O)n1-c1ccccc1 showed an IC50 (second compound 0.0316 µM) of over 10 µM, an IC50 (second compound 0.1 µM) of over 10 µM and an IC50 (second compound 0.316 µM) of over 10 µM. The IC50 (second compound 1 µM) was over 10 µM, the IC50 (second compound 3.16 µM) was over 10 µM and the IC50 (second compound 10 µM) was over 10 µM. The viability, T/C [5] was 96.5%, the viability, T/C [6] was 112% and the viability, T/C [37] was 103%. For the same compound, the viability, T/C [38] was 94.8%, the viability, T/C [39] was 85.1% and the viability, T/C [40] was 110%. For the same compound, the viability, T/C [11] was 110%, the viability, T/C [12] was 110% and the viability, T/C [41] was 97.3%. The viability, T/C [42] was 90.6%, the viability, T/C [43] was 107% and the viability, T/C [44] was 100%. The viability, T/C [17] was 94.6%, the viability, T/C [18] was 88.6% and the viability, T/C [45] was 99.4%. It also gave a viability, T/C [46] of 101%, a viability, T/C [47] of 90.9% and a viability, T/C [48] of 105%. The viability, T/C [23] was 89.5%, the viability, T/C [24] was 104% and the viability, T/C [49] was 96.2%. For the same compound, the viability, T/C [50] was 90.6%, the viability, T/C [51] was 96.7% and the viability, T/C [52] was 96.6%. For the same compound, the viability, T/C [29] was 97%, the viability, T/C [30] was 104% and the viability, T/C [53] was 90%. It also gave a viability, T/C [54] of 100%, a viability, T/C [55] of 87.6% and a viability, T/C [56] of 87.4%. The viability, T/C [35] was 101%, the viability, T/C [36] was 80.1% and the viability, T/C [57] was 79.8%. The viability, T/C [58] was 97%, the viability, T/C [59] was 90.3% and the viability, T/C [60] was 92.3%.

`CNC(=O)c1ccc(N2C(=S)N(c3ccc(C#N)c(C(F)(F)F)c3)C(=O)C2(C)C)cc1F` + CC(Nc1ncnc2nc[nH]c12)c1cc2cccc(Cl)c2c(=O)n1-c1ccccc1 gave an IC50 (second compound 0.0316 µM) of over 10 µM, an IC50 (second compound 0.1 µM) of over 10 µM and an IC50 (second compound 0.316 µM) of over 10 µM. For the same compound, the IC50 (second compound 1 µM) was over 10 µM, the IC50 (second compound 3.16 µM) was over 10 µM and the IC50 (second compound 10 µM) was over 10 µM. For the same compound, the viability, T/C [5] was 90.9%, the viability, T/C [6] was 92.1% and the viability, T/C [37] was 107%. For the same compound, the viability, T/C [38] was 92.6%, the viability, T/C [39] was 101% and the viability, T/C [40] was 85.7%. The viability, T/C [11] was 97.6%, the viability, T/C [12] was 99.6% and the viability, T/C [41] was 93.4%. For the same compound, the viability, T/C [42] was 109%, the viability, T/C [43] was 109% and the viability, T/C [44] was 106%. The viability, T/C [17] was 94.9%, the viability, T/C [18] was 104% and the viability, T/C [45] was 106%. It also gave a viability, T/C [46] of 98.4%, a viability, T/C [47] of 107% and a viability, T/C [48] of 96.2%. It also gave a viability, T/C [23] of 97%, a viability, T/C [24] of 92.1% and a viability, T/C [49] of 102%. For the same compound, the viability, T/C [50] was 92.4%, the viability, T/C [51] was 99.2% and the viability, T/C [52] was 99.7%. For the same compound, the viability, T/C [29] was 89.4%, the viability, T/C [30] was 114% and the viability, T/C [53] was 94%. It also gave a viability, T/C [54] of 103%, a viability, T/C [55] of 101% and a viability, T/C [56] of 93.2%. The viability, T/C [35] was 103%, the viability, T/C [36] was 92% and the viability, T/C [57] was 93%. The viability, T/C [58] was 96.6%, the viability, T/C [59] was 107% and the viability, T/C [60] was 109%.
